# Laboratory results reported in article doi:10.1101/2023.02.27.530254, “Large library docking for cannabinoid-1 receptor agonists with reduced side effects” (bioRxiv, 2024).
# Values joined by “and” are separate entries in the source; they are usually repeats but may differ in a detail not shown here. Equal values may be shown once. Read-outs that look alike come from different tables or passages of the source.
# Assays:
# hCB1 [1] = target: T1, hCB1 (Homo sapiens, UniProt P21554); experiment: bioSens-All ebBRET effector biosensor signaling profiling, HEK293; type: cell-based; parameters: host or cells: HEK293 (HEK293SL clone), transient; details: for RE, relative efficacy: versus CP-55,940
# T1 sequence (P21554 whole entry): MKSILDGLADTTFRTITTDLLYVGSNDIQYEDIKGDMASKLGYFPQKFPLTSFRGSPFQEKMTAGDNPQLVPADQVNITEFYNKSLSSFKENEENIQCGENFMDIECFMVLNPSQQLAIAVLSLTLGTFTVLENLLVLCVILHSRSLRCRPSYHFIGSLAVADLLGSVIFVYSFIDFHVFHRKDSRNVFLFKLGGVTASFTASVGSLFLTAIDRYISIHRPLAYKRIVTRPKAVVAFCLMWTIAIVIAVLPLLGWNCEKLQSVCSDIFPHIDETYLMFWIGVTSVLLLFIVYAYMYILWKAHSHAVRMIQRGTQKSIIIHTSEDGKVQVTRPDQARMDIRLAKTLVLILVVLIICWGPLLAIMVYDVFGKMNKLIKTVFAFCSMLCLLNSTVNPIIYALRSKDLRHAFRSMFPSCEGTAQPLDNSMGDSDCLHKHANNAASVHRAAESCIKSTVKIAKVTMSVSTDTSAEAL
# hCB2 = hCB2 (Homo sapiens, UniProt P34972); experiment: as above; type: cell-based; parameters: host or cells: HEK293 (HEK293SL clone), transient; details: for RE, relative efficacy: versus CP-55,940
# hCB2, sequence (P34972 whole entry): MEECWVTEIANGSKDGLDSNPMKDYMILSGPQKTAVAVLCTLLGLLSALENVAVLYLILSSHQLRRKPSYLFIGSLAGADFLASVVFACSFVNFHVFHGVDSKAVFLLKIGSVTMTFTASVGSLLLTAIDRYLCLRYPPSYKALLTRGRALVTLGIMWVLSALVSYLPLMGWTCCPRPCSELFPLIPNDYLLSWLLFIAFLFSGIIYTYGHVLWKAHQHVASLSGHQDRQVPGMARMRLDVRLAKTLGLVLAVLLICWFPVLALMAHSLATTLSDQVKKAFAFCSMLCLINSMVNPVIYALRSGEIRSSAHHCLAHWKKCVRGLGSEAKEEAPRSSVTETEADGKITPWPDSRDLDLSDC
# [2] = Pharmacokinetics in plasma, brain and CSF; type: in vivo, CD-1 mice; details: 0.2 mg/kg i.p., mice; for half-life: in vivo
# Procedure: The batches of working formulations were prepared 5–10 minutes prior to the in vivo study. […] There was also a one mouse control group. All animals were fasted for 4 h before dosing. Mice were injected i.p. with 2,2,2-tribromoethanol at the dose of 150 mg/kg prior to drawing CSF and blood. Blood collection was performed from the orbital sinus in microtainers containing K3EDTA. CSF was collected under a stereomicroscope from cisterna magna using 1 mL syringes. Animals were sacrificed by cervical dislocation after the blood samples collection. After this, right lobe brain samples were collected and weighted. All samples were immediately processed, flash-frozen and stored at −70°C until subsequent analysis.
# Plasma samples (40 μL) were mixed with 200 μL of internal standard solution. After mixing by pipetting and centrifuging for 4 min at 6,000 rpm, supernatant was injected into LC-MS/MS system. […] After this, the samples were centrifuged for 4 min at 14,000 rpm, and supernatant was injected into LC-MS/MS system. CSF samples (4 μL) were mixed with 100 μL of IS(80) solution. After mixing by pipetting and centrifuging for 4 min at 6,000 rpm, 1–6 μL of each supernatant was injected into LC-MS/MS system.
# Analyses of plasma, brain and CSF samples were conducted at Enamine/Bienta. The concentrations of compounds in samples were determined using high performance liquid chromatography/tandem mass spectrometry (HPLC-MS/MS) method. Data acquisition and system control was performed using Analyst 1.6.3 software (AB Sciex, Canada). The concentrations of the test compound below the lower limit of quantitation (LLOQ: 2–5 ng/mL for plasma and CSF, 1–5 ng/g for brain) were designated as zero. The pharmacokinetic data analysis was performed using noncompartmental, bolus injection or extravascular input analysis models in WinNonlin 5.2 (PharSight). Data below LLOQ were presented as missing to improve validity of T½ calculations.
# C56BL/6 mice = experiment: Conditioned place preference; details: mouse, in vivo
# Procedure: To determine if ‘4042 was inherently rewarding or aversive we used the conditioned place paradigm as described. Briefly, mice were first habituated to the test apparatus, twice, and their preference for each chamber recorded for 30 minutes (Pretest). Two conditioning days followed in which mice received the vehicle control or the compound, and 30 minutes later restricted for 30 minutes in the preferred or non-preferred chamber, respectively. On day 5 (Test day), mice were allowed to roam freely between the 3 chambers of the apparatus and their preference for each chamber recorded for 30 minutes. To calculate the CPP score, we subtracted the time spent in each chamber of the box on the Pretest day from that of the Test day (CPP score = Test - Pretest).
# hCB1 [3] = target: T1, hCB1; experiment: GloSensor cAMP accumulation assay; type: cell-based; parameters: host or cells: HEK293 (HEK293SL clone), transient; details: for Emax: read-out: hCB1 Glosensor cAMP Emax [95% CI]
# Procedure: The results were analysed using GraphPad Prism 9.1. Each experiment was performed in triplicate and functional IC50 values were determined from the mean of three independent experiments.
# [4] = HEK293, read-out: hCB1 Barr2 + GRK2 Emax [95% CI]
# [5] = HEK293, read-out: hCB1 G13 Emax [95% CI]
# [6] = HEK293, read-out: hCB1 G15 Emax [95% CI]
# [7] = HEK293, read-out: hCB1 Gi1 Emax [95% CI]
# [8] = HEK293, read-out: hCB1 Gi2 Emax [95% CI]
# [9] = HEK293, read-out: hCB1 GoB Emax [95% CI]
# [10] = HEK293, read-out: hCB1 Gz Emax [95% CI]
# [11] = hCB1 Barr2 + GRK2 pEC50 [95% CI], ßarrestin-2 PM recruitment sensor with GRK2
# [12] = hCB1 G13 EC50 [95% CI], G13 sensor
# [13] = hCB1 G15 pEC50 [95% CI], G15 sensor
# [14] = hCB1 Gi1 pEC50 [95% CI], Gi1 sensor
# [15] = hCB1 Gi2 EC50 [95% CI], Gi2 sensor
# [16] = hCB1 GoB pEC50 [95% CI], GoB sensor
# [17] = hCB1 Gz pEC50 [95% CI], Gz sensor
# [18] = HEK293, read-out: hCB2 Barr2 + GRK2 Emax [95% CI]
# [19] = HEK293, read-out: hCB2 Gi1 Emax [95% CI]
# [20] = HEK293, read-out: hCB2 Gi2 Emax [95% CI]
# [21] = HEK293, read-out: hCB2 GoB Emax [95% CI]
# [22] = HEK293, read-out: hCB2 Gz Emax [95% CI]
# [23] = hCB1 Gi1 EC50 [95% CI], Gi1 sensor
# [24] = hCB1 GoB EC50 [95% CI], GoB sensor
compound,measurement,setting,value
COC(=O)[C@@](C)(NC(=O)c1cc(C)n(-c2cccc(C(F)(F)F)c2)n1)c1cccs1 [‘1350],Emax,hCB1 [1]; [4],63%
same,Emax,hCB1 [1]; [5],56%
same,Emax,hCB1 [1]; [6],99%
same,Emax,hCB1 [1]; [7],92%
same,Emax,hCB1 [1]; [8],95%
same,Emax,hCB1 [1]; [9],98%
same,Emax,hCB1 [1]; [10],94%
same,EC50,hCB1 [1]; [11],2.19 nM
same,"RE, relative efficacy",hCB1 [1]; hCB1 G13,1.64
same,EC50,hCB1 [1]; [12],0.83 nM
same,"RE, relative efficacy",hCB1 [1]; hCB1 G15,1.14
same,EC50,hCB1 [1]; [13],0.219 nM
same,"RE, relative efficacy",hCB1 [1]; hCB1 Gi1,1.98
same,EC50,hCB1 [1]; [14],0.234 nM
same,"RE, relative efficacy",hCB1 [1]; hCB1 Gi2,1.89
same,EC50,hCB1 [1]; [15],0.28 nM
same,EC50,"hCB1 [1]; hCB1 Gi2 pEC50 [95% CI], Gi2 sensor",0.288 nM
same,EC50,hCB1 [1]; [16],0.288 nM
same,"RE, relative efficacy",hCB1 [1]; hCB1 GoB,2.24
same,EC50,hCB1 [1]; [17],0.347 nM
same,"RE, relative efficacy",hCB1 [1]; hCB1 Gz,0.77
same,"RE, relative efficacy",hCB1 [1]; hCB1 ßarr2 + GRK2,1.16
same,Emax,hCB2; [18],30%
same,Emax,hCB2; [19],74%
same,Emax,hCB2; [20],61%
same,Emax,hCB2; [21],59%
same,Emax,hCB2; [22],52%
same,EC50,hCB2; hCB2 Barr2 + GRK2 pEC50 [95% CI],4.17 nM
same,"RE, relative efficacy",hCB2; hCB2 Gi1,0.29
same,EC50,hCB2; hCB2 Gi1 EC50 [95% CI],3.55 nM
same,"RE, relative efficacy",hCB2; hCB2 Gi2,0.40
same,EC50,hCB2; hCB2 Gi2 pEC50 [95% CI],1.62 nM
same,EC50,hCB2; hCB2 GoB pEC50 [95% CI],2.63 nM
same,"RE, relative efficacy",hCB2; hCB2 GoB,0.40
same,EC50,hCB2; hCB2 Gz EC50 [95% CI],2.6 nM
same,EC50,hCB2; hCB2 Gz pEC50 [95% CI],2.63 nM
same,"RE, relative efficacy",hCB2; hCB2 Gz,0.22
same,"RE, relative efficacy",hCB2; hCB2 ßarr2 + GRK2,0.92
COC(=O)C(C)(NC(=O)c1cc(C)n(-c2cccc(C(F)(F)F)c2)n1)c1cccs1 (stereo not shown) [‘4042],Cmax brain,[2],16.8 ng/g
same,compartments in which compound was found,[2],"appreciably in brain and plasma, but not CSF compartments"
same,AUC(0-inf),"[2]; male, CD-1, mouse, brain, ip, read-out: AUC0→inf brain tissue (converted)",53 ng·h/mL
same,half-life,"[2]; male, CD-1, mouse, ip",114 min
same,Cmax,"[2]; male, CD-1, mouse, plasma, ip",5.14 ng/mL and 12 nM
same,AUC(0-inf),"[2]; male, CD-1, mouse, plasma, ip, read-out: AUC0→inf plasma (converted)",22.5 ng·h/mL
same,conditioned place preference,C56BL/6 mice,does not induce preference
same,EC50,hCB1 [3],0.0398 nM
same,Emax,hCB1 [3],91%
same,Emax,hCB1 [1]; [4],72%
same,Emax,hCB1 [1]; [5],64%
same,Emax,hCB1 [1]; [6],105%
same,Emax,hCB1 [1]; [7],102%
same,Emax,hCB1 [1]; [8],101%
same,Emax,hCB1 [1]; [9],103%
same,Emax,hCB1 [1]; [10],97%
same,EC50,hCB1 [1]; [11],3.63 nM
same,"RE, relative efficacy",hCB1 [1]; hCB1 G13,0.91
same,EC50,hCB1 [1]; [12],2.1 nM
same,EC50,"hCB1 [1]; hCB1 G13 pEC50 [95% CI], G13 sensor",2.04 nM
same,"RE, relative efficacy",hCB1 [1]; hCB1 G15,0.74
same,EC50,hCB1 [1]; [13],0.372 nM
same,"RE, relative efficacy",hCB1 [1]; hCB1 Gi1,0.97
same,EC50,hCB1 [1]; [23],0.48 nM
same,"RE, relative efficacy",hCB1 [1]; hCB1 Gi2,1.01
same,EC50,hCB1 [1]; [15],0.56 nM
same,EC50,hCB1 [1]; [24],0.64 nM
same,EC50,hCB1 [1]; [16],0.631 nM
same,"RE, relative efficacy",hCB1 [1]; hCB1 GoB,1.04
same,EC50,hCB1 [1]; [17],0.427 nM
same,"RE, relative efficacy",hCB1 [1]; hCB1 Gz,0.62
same,"RE, relative efficacy",hCB1 [1]; hCB1 ßarr2 + GRK2,0.81
same,Emax,hCB2; [18],33%
same,Emax,hCB2; [19],82%
same,Emax,hCB2; [20],70%
same,Emax,hCB2; [21],61%
same,Emax,hCB2; [22],56%
same,EC50,hCB2; hCB2 Barr2 + GRK2 EC50 [95% CI],5.5 nM
same,"RE, relative efficacy",hCB2; hCB2 Gi1,0.63
same,EC50,hCB2; hCB2 Gi1 EC50 [95% CI],2.7 nM
same,EC50,hCB2; hCB2 Gi1 pEC50 [95% CI],2.63 nM
same,"RE, relative efficacy",hCB2; hCB2 Gi2,0.59
same,EC50,hCB2; hCB2 Gi2 pEC50 [95% CI],1.26 nM
same,EC50,hCB2; hCB2 GoB pEC50 [95% CI],2.51 nM
same,"RE, relative efficacy",hCB2; hCB2 GoB,0.47
same,EC50,hCB2; hCB2 Gz EC50 [95% CI],1.36 nM
same,"RE, relative efficacy",hCB2; hCB2 Gz,0.38
same,"RE, relative efficacy",hCB2; hCB2 ßarr2 + GRK2,0.82
"CCCCCCC(C)(C)c1ccc([C@@H]2C[C@H](O)CC[C@H]2CCCO)c(O)c1 [CP-55,940, reference compound]",Cmax brain,[2],19.2 ng/g
same,plasma Cmax increase compared to ‘4042,[2],~10 fold
same,half-life,"[2]; male, CD-1, mouse, ip",127 min
same,conditioned place preference,C56BL/6 mice,may actually induce some aversion
same,Emax,"hCB1 [1]; HEK293, read-out: hCB1 Barr2 + GRK2 Emax [95% CI], ßarrestin-2 sensor with GRK2, normalized to CP-55,940",89%
same,Emax,"hCB1 [1]; HEK293, read-out: hCB1 G13 Emax [95% CI], G13 sensor, normalized to CP-55,940",100%
same,Emax,"hCB1 [1]; HEK293, read-out: hCB1 G15 Emax [95% CI], G15 sensor, normalized to CP-55,940",100%
same,Emax,"hCB1 [1]; HEK293, read-out: hCB1 Gi1 Emax [95% CI], Gi1 sensor, normalized to CP-55,940",100%
same,Emax,"hCB1 [1]; HEK293, read-out: hCB1 Gi2 Emax [95% CI], Gi2 sensor, normalized to CP-55,940",100%
same,Emax,"hCB1 [1]; HEK293, read-out: hCB1 GoB Emax [95% CI], GoB sensor, normalized to CP-55,940",100%
same,Emax,hCB2; [18],100%
same,Emax,hCB2; [19],100%
same,Emax,hCB2; [20],100%
same,Emax,hCB2; [21],100%
COC(=O)C(NC(=O)c1cc(C)n(-c2cccc(C(F)(F)F)c2)n1)c1cccs1 (stereo not shown) [‘60154],EC50,hCB1 [3],25.1 nM
same,Emax,hCB1 [3],82%
same,Emax,hCB1 [1]; [7],92%
same,Emax,hCB1 [1]; [9],100%
same,Emax,hCB1 [1]; [10],121%
same,EC50,hCB1 [1]; [23],2.5 nM
same,EC50,hCB1 [1]; [14],25.1 nM
same,EC50,hCB1 [1]; [24],18.4 nM
same,EC50,"hCB1 [1]; hCB1 Gz EC50 [95% CI], Gz sensor",17.5 nM
